From US10526327B2, “Histone demethylase inhibitors” (CELGENE QUANTICEL RESEARCH, INC., priority 2013, dated 2020)

Assays:
Jarid1B = target: T1, Jarid1B (Homo sapiens, UniProt Q9UGL1); assay: Jarid1B in vitro enzyme inhibition assay (TR-FRET); assay type: biochemical
T1 construct: purchased BPS Bioscience or custom made by MolecularThroughput 50121
T1 sequence (Q9UGL1 2-751): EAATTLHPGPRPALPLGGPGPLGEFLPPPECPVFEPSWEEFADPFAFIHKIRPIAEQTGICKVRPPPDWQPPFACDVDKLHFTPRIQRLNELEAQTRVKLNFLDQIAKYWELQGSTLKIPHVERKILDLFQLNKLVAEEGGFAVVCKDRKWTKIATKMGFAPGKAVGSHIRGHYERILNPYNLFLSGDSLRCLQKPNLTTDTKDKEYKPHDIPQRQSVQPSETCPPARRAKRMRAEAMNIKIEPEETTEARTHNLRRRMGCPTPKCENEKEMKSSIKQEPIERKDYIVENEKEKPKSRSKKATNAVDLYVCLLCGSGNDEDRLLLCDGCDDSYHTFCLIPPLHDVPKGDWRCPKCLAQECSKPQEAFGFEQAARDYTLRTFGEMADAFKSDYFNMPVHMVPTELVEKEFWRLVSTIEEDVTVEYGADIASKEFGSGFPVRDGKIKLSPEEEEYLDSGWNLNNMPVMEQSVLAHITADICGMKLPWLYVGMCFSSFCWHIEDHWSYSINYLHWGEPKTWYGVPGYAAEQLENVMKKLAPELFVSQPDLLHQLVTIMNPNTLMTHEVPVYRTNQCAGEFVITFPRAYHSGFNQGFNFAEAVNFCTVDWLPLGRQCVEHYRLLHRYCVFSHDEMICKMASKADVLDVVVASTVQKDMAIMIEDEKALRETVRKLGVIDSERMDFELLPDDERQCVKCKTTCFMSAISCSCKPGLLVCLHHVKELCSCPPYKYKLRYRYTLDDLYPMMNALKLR
Method in brief: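 TR-FRET read-out of demethylated product (Eu-anti-H3K4me1-2, streptavidin-APC) after EDTA quench; ratio 665/615 fitted to IC50. Reaction: 30 min at RT, 0.8 nM baculovirus Jarid1B residues 2-751, 2 μM α-ketoglutarate, 300 nM H3K4me3-biotin peptide, pH 7.3 buffer with Fe(II) and ascorbate.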

KDM5A/B = assay: In vitro cell-based assay: immuno-blot quantification of tri-methyl H3K4 in ZR-75-1 breast cancer cells; conditions: 72 hours, tri-methyl H3K4 level relative to GAPDH, percent of DMSO, read-out: Cellular IC50
Method in brief: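 ZR-75-1 breast cancer cells treated 72 h with 11-point compound dilutions (1250 μM to 10 nM). H3K4me3 quantified by infrared immunoblot densitometry, normalized to GAPDH and expressed as percent of DMSO control; relative IC50 from curve fit.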

SMILES | IC50 (Jarid1B) [nM] | IC50 (KDM5A/B) [nM]
Oc1nc(OCc2coc3ccccc23)nc2cnccc12 [Example 193, 2-(1-benzofuran-3-ylmethoxy)pyrido[3,4-d]pyrimidin-4-ol] | 100 to 1000 | 
Oc1nc(OCCOCC(F)(F)F)nc2cnccc12 [Example 23, 2-[2-(2,2,2-trifluoroethoxy)ethoxy]pyrido[3,4-d]pyrimidin-4-ol] | 100 to 1000 | 
Oc1nc(OCc2cc(F)ccc2F)nc2cnccc12 [Example 182, 2-[(2,5-difluorophenyl)methoxy]pyrido[3,4-d]pyrimidin-4-ol] | 1000 to 10000 | 
CC(C)OCCOc1nc(O)c2ccncc2n1 [Example 29, 2-(2-propan-2-yloxyethoxy)pyrido[3,4-d]pyrimidin-4-ol] | 100 to 1000 | 
CC(C)Oc1nc(O)c2ccncc2n1 [Example 1, 2-propan-2-yloxy-3H-pyrido[3,4-d]pyrimidin-4-one] | 100 to 1000 | 
Oc1nc(OC2CCc3ccccc32)nc2cnccc12 (stereo not drawn) [Example 192, 2-(2,3-dihydro-1H-inden-1-yloxy)pyrido[3,4-d]pyrimidin-4-ol] | 1000 to 10000 | 
Oc1nc(Oc2ccccc2)nc2cnccc12 [Example 34, 2-phenoxypyrido[3,4-d]pyrimidin-4-ol] | ≤ 100 | > 10000
Oc1nc(OCC2CCOC2)nc2cnccc12 (stereo not drawn) [Example 27, 2-(oxolan-3-ylmethoxy)pyrido[3,4-d]pyrimidin-4-ol] | 100 to 1000 | 
Oc1nc(OCc2ccccc2-c2ccccc2)nc2cnccc12 [Example 185, 2-[(2-phenylphenyl)methoxy]pyrido[3,4-d]pyrimidin-4-ol] | 1000 to 10000 | 
Oc1nc(OC2CCOc3ccccc32)nc2cnccc12 (stereo not drawn) [Example 197, 2-(3,4-dihydro-2H-1-benzopyran-4-yloxy)pyrido[3,4-d]pyrimidin-4-ol] | 100 to 1000 | 
Oc1nc(OCC2COc3ccccc32)nc2cnccc12 (stereo not drawn) [Example 194, 2-(2,3-dihydro-1-benzofuran-3-ylmethoxy)pyrido[3,4-d]pyrimidin-4-ol] | 1000 to 10000 | 
CC(CO)COc1nc(O)c2ccncc2n1 (stereo not drawn) [Example 25, 2-(3-hydroxy-2-methylpropoxy)pyrido[3,4-d]pyrimidin-4-ol] | 100 to 1000 | 
Oc1nc(OCc2cccc(F)c2F)nc2cnccc12 [Example 181, 2-[(2,3-difluorophenyl)methoxy]pyrido[3,4-d]pyrimidin-4-ol] | 1000 to 10000 | 
CC(C)(O)CCOc1nc(O)c2ccncc2n1 [Example 24, 2-(3-hydroxy-3-methylbutoxy)pyrido[3,4-d]pyrimidin-4-ol] | ≤ 100 | > 10000
CCOc1nc(O)c2ccncc2n1 [Example 2, 2-ethoxypyrido[3,4-d]pyrimidin-4-ol] | ≤ 100 | > 10000
Oc1nc(OCC2CCc3ccccc3C2)nc2cnccc12 (stereo not drawn) [Example 191, 2-(1,2,3,4-tetrahydronaphthalen-2-ylmethoxy)pyrido[3,4-d]pyrimidin-4-ol] | 100 to 1000 | 
Oc1nc(OCCOCc2ccccc2)nc2cnccc12 [Example 30, 2-(2-phenylmethoxyethoxy)pyrido[3,4-d]pyrimidin-4-ol] | 100 to 1000 | 
N#Cc1cccc(COc2nc(O)c3ccncc3n2)c1 [Example 32, 3-[(4-hydroxypyrido[3,4-d]pyrimidin-2-yl)oxymethyl]benzonitrile] | 100 to 1000 | 

SMILES | IC50 (Jarid1B) [nM] | IC50 (KDM5A/B) [nM]
Oc1nc(OC2CCCc3ccccc32)nc2cnccc12 (stereo not drawn) [Example 196, 2-(1,2,3,4-tetrahydronaphthalen-1-yloxy)pyrido[3,4-d]pyrimidin-4-ol] | 1000 to 10000 | 
Oc1nc(OCC2CCCO2)nc2cnccc12 (stereo not drawn) [Example 26, 2-(oxolan-2-ylmethoxy)pyrido[3,4-d]pyrimidin-4-ol] | 1000 to 10000 | 
Cn1cnc(-c2nccc3c(=O)[nH]cnc23)c1 [Example 198, 8-(1-methylimidazol-4-yl)-3H-pyrido[3,4-d]pyrimidin-4-one] | 100 to 1000 | 
Oc1nc(OCC2CCc3ccccc32)nc2cnccc12 (stereo not drawn) [Example 190, 2-(2,3-dihydro-1H-inden-1-ylmethoxy)pyrido[3,4-d]pyrimidin-4-ol] | 100 to 1000 | 
Oc1nc(OCc2ccccc2F)nc2cnccc12 [Example 178, 2-[(2-fluorophenyl)methoxy]pyrido[3,4-d]pyrimidin-4-ol] | 1000 to 10000 | 
Oc1nc(OC2Cc3ccccc3C2)nc2cnccc12 [Example 189, 2-(2,3-dihydro-1H-inden-2-yloxy)pyrido[3,4-d]pyrimidin-4-ol] | 100 to 1000 | 
Oc1nc(OCc2cccc(F)c2)nc2cnccc12 [Example 179, 2-[(3-fluorophenyl)methoxy]pyrido[3,4-d]pyrimidin-4-ol] | 1000 to 10000 | 
Oc1nc(OCc2ccc3ccccc3c2)nc2cnccc12 [Example 187, 2-(naphthalen-2-ylmethoxy)pyrido[3,4-d]pyrimidin-4-ol] | 1000 to 10000 | 
Oc1nc(OCc2cccc(-c3ccccc3)c2)nc2cnccc12 [Example 186, 2-[(3-phenylphenyl)methoxy]pyrido[3,4-d]pyrimidin-4-ol] | 1000 to 10000 | 
Oc1nc(OCc2cccc3ccccc23)nc2cnccc12 [Example 184, 2-(naphthalen-1-ylmethoxy)pyrido[3,4-d]pyrimidin-4-ol] | 1000 to 10000 | 
Oc1nc(OCc2ccc(F)cc2)nc2cnccc12 [Example 180, 2-[(4-fluorophenyl)methoxy]pyrido[3,4-d]pyrimidin-4-ol] | 1000 to 10000 | 
Oc1nc(OCC2CCOc3ccccc32)nc2cnccc12 (stereo not drawn) [Example 195, 2-(3,4-dihydro-2H-1-benzopyran-4-ylmethoxy)pyrido[3,4-d]pyrimidin-4-ol] | 100 to 1000 | 
Oc1nc(OCC2CCCc3ccccc32)nc2cnccc12 (stereo not drawn) [Example 188, 2-(1,2,3,4-tetrahydronaphthalen-1-ylmethoxy)pyrido[3,4-d]pyrimidin-4-ol] | 100 to 1000 | 
CC(=O)N(C)CCOc1nc(O)c2ccncc2n1 [Example 28, N-[2-(4-hydroxypyrido[3,4-d]pyrimidin-2-yl)oxyethyl]-N-methylacetamide] | 100 to 1000 | 
Cn1ccc(COc2nc(O)c3ccncc3n2)n1 [Example 33, 2-[(1-methylpyrazol-3-yl)methoxy]pyrido[3,4-d]pyrimidin-4-ol] | 1000 to 10000 | 
Oc1nc(OCc2ccccc2C(F)(F)F)nc2cnccc12 [Example 177, 2-{[2-(trifluoromethyl)phenyl]methoxy}pyrido[3,4-d]pyrimidin-4-ol] | 1000 to 10000 | 
Oc1nc(OCc2c(F)cccc2F)nc2cnccc12 [Example 183, 2-[(2,6-difluorophenyl)methoxy]pyrido[3,4-d]pyrimidin-4-ol] | 1000 to 10000 | 
O=C(NCCOc1nc(O)c2ccncc2n1)c1ccccc1 [Example 31, N-[2-(4-hydroxypyrido[3,4-d]pyrimidin-2-yl)oxyethyl]benzamide] | ≤ 100 | 
